The values below come from PMC4286194 (Biochemical Journal, 2015).

The target in one test is MEKK1 (Homo sapiens, UniProt Q13233). Briefly: Kinase profiling. It is filed as biochemical.
Test [1] relates to Bone-marrow-derived macrophages. Briefly: IL-10 secretion (BIOPLEX) in LPS-stimulated macrophages. It is filed as cell-based, mouse. To be noted: for EC50: Mus musculus, Macrophage, read-out: EC50 for elevation of IL-10 secretion; for IL-10 production at optimal dose: dasatinib 300 nM, bosutinib 3 μM, HG-9-91-01 500 nM, LPS-stimulated. On the procedure: The concentration of TNFα, IL-6, IL-10 and IL-12p40 in cell-free culture supernatants were measured using the Bio-Plex Pro Assay system (Bio-Rad).

In another test the target is T1, MAP4K3 (Homo sapiens, UniProt Q8IVH8).
T1 sequence (Q8IVH8 1-894): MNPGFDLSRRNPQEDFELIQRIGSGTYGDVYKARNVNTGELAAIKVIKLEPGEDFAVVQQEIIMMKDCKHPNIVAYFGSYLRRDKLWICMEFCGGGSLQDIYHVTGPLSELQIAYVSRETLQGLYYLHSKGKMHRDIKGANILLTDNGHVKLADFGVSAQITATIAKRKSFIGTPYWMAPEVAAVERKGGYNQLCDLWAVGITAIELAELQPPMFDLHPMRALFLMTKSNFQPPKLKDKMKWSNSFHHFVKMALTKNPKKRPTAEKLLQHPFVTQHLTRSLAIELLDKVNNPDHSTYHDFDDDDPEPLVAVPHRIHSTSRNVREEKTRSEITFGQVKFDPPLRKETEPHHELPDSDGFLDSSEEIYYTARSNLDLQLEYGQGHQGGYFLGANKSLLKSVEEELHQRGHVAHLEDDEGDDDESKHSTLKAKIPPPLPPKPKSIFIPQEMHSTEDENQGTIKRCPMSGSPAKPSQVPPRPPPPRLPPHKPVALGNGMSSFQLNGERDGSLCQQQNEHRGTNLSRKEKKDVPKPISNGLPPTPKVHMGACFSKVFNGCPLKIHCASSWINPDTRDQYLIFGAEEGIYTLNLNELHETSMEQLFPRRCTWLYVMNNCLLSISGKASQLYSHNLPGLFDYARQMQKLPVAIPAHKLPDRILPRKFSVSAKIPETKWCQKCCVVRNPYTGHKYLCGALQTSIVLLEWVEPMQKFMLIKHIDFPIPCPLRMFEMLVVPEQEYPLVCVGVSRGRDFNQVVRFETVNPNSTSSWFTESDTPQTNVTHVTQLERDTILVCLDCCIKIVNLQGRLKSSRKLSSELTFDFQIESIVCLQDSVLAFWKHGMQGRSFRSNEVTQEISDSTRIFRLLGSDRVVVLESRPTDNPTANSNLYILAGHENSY
Briefly: Kinase profiling. It is filed as biochemical.

The next test deals with JAK2 (Homo sapiens, UniProt O60674). Briefly: Kinase profiling. The test is classed as biochemical.
Chain of JAK2 (O60674 whole entry): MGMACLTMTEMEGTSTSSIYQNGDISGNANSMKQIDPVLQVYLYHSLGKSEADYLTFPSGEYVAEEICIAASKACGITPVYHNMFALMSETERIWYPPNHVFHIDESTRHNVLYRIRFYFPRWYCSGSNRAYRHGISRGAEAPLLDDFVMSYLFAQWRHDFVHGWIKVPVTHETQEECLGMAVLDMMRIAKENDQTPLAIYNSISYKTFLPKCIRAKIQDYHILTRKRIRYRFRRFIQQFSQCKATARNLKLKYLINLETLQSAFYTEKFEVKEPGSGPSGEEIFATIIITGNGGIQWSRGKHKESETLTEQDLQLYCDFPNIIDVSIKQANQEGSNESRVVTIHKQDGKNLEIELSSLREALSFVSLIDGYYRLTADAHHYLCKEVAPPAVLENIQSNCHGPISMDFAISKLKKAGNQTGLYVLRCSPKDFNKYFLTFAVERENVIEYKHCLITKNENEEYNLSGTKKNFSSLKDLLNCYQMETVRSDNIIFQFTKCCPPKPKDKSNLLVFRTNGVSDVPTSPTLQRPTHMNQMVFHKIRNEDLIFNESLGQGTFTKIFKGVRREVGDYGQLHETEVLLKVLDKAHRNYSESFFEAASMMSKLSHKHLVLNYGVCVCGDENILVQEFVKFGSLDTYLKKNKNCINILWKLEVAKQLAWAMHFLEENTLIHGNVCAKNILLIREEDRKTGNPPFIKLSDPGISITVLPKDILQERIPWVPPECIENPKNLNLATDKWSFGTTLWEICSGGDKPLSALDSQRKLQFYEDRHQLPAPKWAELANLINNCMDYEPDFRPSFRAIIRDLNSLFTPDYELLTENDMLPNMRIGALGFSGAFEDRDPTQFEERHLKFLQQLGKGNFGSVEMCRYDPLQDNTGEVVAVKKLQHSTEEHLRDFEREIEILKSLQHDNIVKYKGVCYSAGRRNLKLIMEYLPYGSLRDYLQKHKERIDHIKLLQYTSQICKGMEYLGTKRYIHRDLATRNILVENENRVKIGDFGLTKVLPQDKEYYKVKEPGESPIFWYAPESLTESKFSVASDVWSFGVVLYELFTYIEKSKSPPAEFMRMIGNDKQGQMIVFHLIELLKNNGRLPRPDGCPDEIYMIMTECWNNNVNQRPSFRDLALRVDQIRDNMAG
The next test concerns the target EF2K (Homo sapiens, UniProt O00418). Briefly: Kinase profiling. It is filed as biochemical.
The subject of a further test is CRTC3. Briefly: CRTC3 phosphorylation (immunoprecipitation, immunoblot). The test is classed as cell-based. As to conditions: RAW264.7 macrophages, 1 h.
In test [2] the test system is Bone-marrow-derived macrophages. Briefly: Markers of 'regulatory' macrophages (qPCR). It is filed as cell-based, mouse. To be noted: 3 μM bosutinib or 0.3 μM dasatinib 1 h, then LPS. On the procedure: mRNA was extracted from cells using the MicroElute Total RNA kit following the manufacturers’ instructions (Omega Bio-Tek). cDNA was generated from 0.5 μg of total RNA using the iScript cDNA synthesis kit and quantified by quantitative real-time PCR (qPCR) using the SsoFast EvaGreen Supermix on a CFX384 real-time system (Bio-Rad Laboratories). The relative expression of each gene was calculated from CT values using the Pfaffl method and was normalized against the mRNA levels of housekeeping genes including 18S RNA and GAPDH. Results are reported relative to untreated control cells, which were set to 1.

Another test deals with T2, BRSK2 (Homo sapiens, UniProt Q8IWQ3).
T2 sequence (Q8IWQ3 1-736): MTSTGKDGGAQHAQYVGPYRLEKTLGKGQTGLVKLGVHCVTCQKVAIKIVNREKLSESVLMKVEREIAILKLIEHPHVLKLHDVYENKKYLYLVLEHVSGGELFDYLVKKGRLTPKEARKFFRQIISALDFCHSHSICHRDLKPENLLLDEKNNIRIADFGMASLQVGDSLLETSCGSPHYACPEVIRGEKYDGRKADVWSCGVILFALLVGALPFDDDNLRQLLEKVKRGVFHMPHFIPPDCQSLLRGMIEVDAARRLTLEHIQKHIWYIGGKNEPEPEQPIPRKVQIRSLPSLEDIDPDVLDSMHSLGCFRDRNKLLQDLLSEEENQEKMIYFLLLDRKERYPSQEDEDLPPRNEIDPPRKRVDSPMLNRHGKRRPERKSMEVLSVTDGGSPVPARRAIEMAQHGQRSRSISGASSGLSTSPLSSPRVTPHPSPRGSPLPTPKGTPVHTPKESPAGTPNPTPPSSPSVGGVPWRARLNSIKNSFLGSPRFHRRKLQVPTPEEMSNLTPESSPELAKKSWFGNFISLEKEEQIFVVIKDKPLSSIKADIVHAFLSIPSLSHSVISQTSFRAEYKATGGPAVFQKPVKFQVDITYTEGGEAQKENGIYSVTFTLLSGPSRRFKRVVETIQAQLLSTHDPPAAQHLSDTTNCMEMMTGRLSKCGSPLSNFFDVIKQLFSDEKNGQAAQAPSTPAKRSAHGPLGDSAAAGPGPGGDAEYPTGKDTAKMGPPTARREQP
Briefly: Kinase profiling. It is filed as biochemical.

The target in the next test is PKB alpha (Homo sapiens, UniProt P31749). Briefly: Kinase profiling. It is filed as biochemical.
Chain of PKB alpha (P31749 whole entry): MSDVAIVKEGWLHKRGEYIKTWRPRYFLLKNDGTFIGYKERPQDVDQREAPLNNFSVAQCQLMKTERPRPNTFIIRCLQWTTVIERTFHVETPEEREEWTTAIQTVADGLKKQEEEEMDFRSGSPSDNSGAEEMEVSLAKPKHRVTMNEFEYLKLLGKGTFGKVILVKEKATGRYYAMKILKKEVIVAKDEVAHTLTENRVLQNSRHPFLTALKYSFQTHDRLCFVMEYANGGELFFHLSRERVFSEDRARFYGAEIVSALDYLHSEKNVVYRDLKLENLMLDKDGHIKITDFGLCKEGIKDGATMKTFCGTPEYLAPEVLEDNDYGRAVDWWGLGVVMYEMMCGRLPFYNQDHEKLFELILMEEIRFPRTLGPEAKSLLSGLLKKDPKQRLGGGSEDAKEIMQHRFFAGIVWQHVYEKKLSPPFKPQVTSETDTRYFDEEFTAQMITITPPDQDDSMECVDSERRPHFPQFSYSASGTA

Chain of MEKK1 (Q13233 whole entry): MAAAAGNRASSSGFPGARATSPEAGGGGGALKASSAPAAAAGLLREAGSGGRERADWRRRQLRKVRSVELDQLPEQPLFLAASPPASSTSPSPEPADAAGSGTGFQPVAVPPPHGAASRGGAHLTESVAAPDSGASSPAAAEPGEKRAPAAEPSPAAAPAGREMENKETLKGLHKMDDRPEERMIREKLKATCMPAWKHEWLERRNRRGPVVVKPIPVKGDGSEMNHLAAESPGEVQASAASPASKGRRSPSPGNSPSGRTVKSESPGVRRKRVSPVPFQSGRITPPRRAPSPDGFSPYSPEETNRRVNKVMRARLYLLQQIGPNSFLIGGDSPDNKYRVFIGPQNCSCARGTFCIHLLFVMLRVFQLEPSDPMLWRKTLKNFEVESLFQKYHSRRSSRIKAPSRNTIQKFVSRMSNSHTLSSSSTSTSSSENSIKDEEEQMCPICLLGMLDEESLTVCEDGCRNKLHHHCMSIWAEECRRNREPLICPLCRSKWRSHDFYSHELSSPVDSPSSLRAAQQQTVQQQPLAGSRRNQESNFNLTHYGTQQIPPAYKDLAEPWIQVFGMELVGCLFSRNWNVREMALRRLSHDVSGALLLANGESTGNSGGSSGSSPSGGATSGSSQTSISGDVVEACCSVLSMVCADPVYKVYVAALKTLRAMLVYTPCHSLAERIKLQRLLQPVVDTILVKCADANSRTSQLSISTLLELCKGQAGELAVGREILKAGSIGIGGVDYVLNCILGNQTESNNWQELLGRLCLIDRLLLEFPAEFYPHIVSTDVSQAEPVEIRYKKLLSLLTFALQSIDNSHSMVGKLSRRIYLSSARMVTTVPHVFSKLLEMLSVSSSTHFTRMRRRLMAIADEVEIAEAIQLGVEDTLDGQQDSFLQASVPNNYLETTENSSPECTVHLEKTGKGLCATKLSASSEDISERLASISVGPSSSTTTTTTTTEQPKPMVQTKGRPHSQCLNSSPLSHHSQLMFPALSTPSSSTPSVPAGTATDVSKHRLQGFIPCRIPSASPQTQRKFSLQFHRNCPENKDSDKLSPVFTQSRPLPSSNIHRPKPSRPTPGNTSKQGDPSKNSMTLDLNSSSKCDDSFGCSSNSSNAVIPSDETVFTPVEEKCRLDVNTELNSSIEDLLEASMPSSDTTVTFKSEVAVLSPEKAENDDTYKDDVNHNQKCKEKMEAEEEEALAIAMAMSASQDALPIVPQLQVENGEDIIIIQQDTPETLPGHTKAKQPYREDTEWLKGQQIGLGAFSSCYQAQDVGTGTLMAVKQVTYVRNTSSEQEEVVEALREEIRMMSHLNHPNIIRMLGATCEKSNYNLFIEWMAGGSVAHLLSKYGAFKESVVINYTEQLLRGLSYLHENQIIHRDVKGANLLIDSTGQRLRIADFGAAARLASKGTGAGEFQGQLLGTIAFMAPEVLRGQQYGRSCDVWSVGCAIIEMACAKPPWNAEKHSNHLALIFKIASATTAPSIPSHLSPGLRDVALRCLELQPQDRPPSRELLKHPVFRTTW
Protocol for CRTC3: RAW264.7 cells were cultured in DMEM containing 10% FBS, 2 mM glutamine and penicillin and streptomycin. […] Cells were treated for 1 h with or without inhibitors and then stimulated for up to 24 h with either 1 μg/ml Pam3CSK4 or 100 ng/ml LPS.
Cells were extracted in lysis buffer [50 mM Tris/HCl, pH 7.4, 1 mM EDTA, 1 mM EGTA, 50 mM NaF, 5 mM sodium pyrophosphate, 10 mM sodium β-glycerol 1-phosphate, 1 mM DTT, 1 mM sodium orthovanadate, 0.27 M sucrose, 1% (v/v) Triton X-100, 1 μg/ml aprotinin, 1 μg/ml leupeptin and 1 mM PMSF]. Cell extracts were clarified by centrifugation and protein concentrations were determined using the Bradford assay. To immunoprecipitate endogenous CRTC3, 1 mg of cell extract was incubated with 5 μg of anti-CRTC3 [13] covalently cross-linked on to Protein G–Sepharose. Immune complexes were washed three times with lysis buffer, eluted in 1% SDS and separated by SDS/PAGE. To detect proteins in cell lysates, 20 μg of protein extract was separated by SDS/PAGE. After transfer to PVDF membranes, proteins were detected by immunoblotting and visualized by treating the blots with ECL (GE Healthcare) followed by autoradiography.

As for `COc1cc(Nc2c(C#N)cnc3cc(OCCCN4CCN(C)CC4)c(OC)cc23)c(Cl)cc1Cl` [Bosutinib, bosutinib], the remaining activity at 0.1 µM on MEKK1 amounted to 95 ± 5%; on MAP4K3 it was 3%; at JAK2, 72 ± 5%; on EF2K, 81 ± 2%; on BRSK2, 107 ± 12%; on PKB alpha (0.1 µM), 110 ± 16%. Moreover, the remaining activity at 1 µM on MEKK1 worked out at 85 ± 6%; at MAP4K3 it was 1%; at JAK2 it was 26%; on EF2K, 95 ± 6%; at BRSK2, 120 ± 4%; on PKB alpha it was 116 ± 30%. Moreover, the EC50 in test [1] amounted to 510 nM. Also, the “IL-10 production at optimal dose” value in test [1] is listed as “induced IL-10 production to similar levels as HG-9-91-01”. Also, the “Phosphorylation of CRTC3 at Ser162 and Ser370” value with CRTC3 is “dephosphorylation”. The “Expression of SPHK1, LIGHT and arginase 1” value in test [2] was “elevated”.
With `Cc1nc(Nc2ncc(C(=O)Nc3c(C)cccc3Cl)s2)cc(N2CCN(CCO)CC2)n1` [Dasatinib], the remaining activity at 0.1 µM on MEKK1 was found to be 98 ± 4%; on MAP4K3, 88 ± 15%; at JAK2, 94 ± 2%; at EF2K, 104 ± 4%; on BRSK2, 102 ± 14%. Further, the remaining activity at 1 µM was 102 ± 1% on MEKK1; 54 ± 1% at MAP4K3; 42 ± 1% on JAK2; 95 ± 5% on EF2K; 108 ± 13% at BRSK2; 120 ± 13% on PKB alpha. In [1], the EC50 is 110 nM. Also, in test [1], the “IL-10 production at optimal dose” value was “induced IL-10 production to similar levels as HG-9-91-01”. Moreover, in the test on CRTC3, the “Phosphorylation of CRTC3 at Ser162 and Ser370” value was “dephosphorylation”. Moreover, the “Expression of SPHK1, LIGHT and arginase 1” value in test [2] was “elevated”.
